This is an account of results in patent publication US20110281726A1, “GLEDITSIA AMORPHOIDES SEEDLESS POD EXTRACT AND ITS USE AS AN AGRICULTURAL ADJUVANT” (IDEASUPPLY.COM ARGENTINA S.A., priority 2005, published 2011).

Common to all, as to type: in vivo
In assay [1] the test system is leafmining moth (Phyllocnistis Citrella Stainton). As to the kind of experiment: Control of leafmining moth: field test in a five-year vegetable garden. As to the method:
Finally, the above treatments were tested on the field, in a five-year vegetable garden.

Assay [2] shares this test system. As to the kind of experiment: Control of leafmining moth: injection into tunnels and application on foliar surface. The source says:
Efficacy of “avemectin” and the CU co-adjuvant of the invention to control leafmining moth (Phyllocnistis Citrella Stainton.)
Two assays were designed in order to assess the effect of two concentrations of the Coronillo Ultra surfactant and combinations of both products to control leafmining moth in citrus (Phyllocnistis Citrella Stainton.)
One of the assays was geared to testing the action of the direct contact of the products, both pure and in mixtures, with the larvae of the second and third stages by injecting the solution into the tunnels. The second assay aimed at assessing the effect of its application on the foliar surface affected with tunnels. In both assays, methylene blue dye was used as tracer to assess the flow of the solution inside the tunnel and the larvae.
In the treatments applied over the foliar surface, effects were noticed only when the active penetrated the epidermis and came into contact with the insect inside the tunnel.

For assay [3], the system named is alfalfa (Medicago Sativa L.). As to the kind of experiment: Influence of CU co-adjuvant on the activity of defoliant Paraquat in alfalfa. The note with it: Paraquat 1 l/ha, CU 0.25% v/v, emulsion oil 1% v/v, five days after treatment, day-night temperatures 30/21° C. The procedure:
Another application with agrochemicals was conducted by assessing the influence of the “CU” co-adjuvant of the invention on the activity of defoliant “Paraquat” in alfalfa (Medicago Sativa L.)
For such purpose, the effect of the addition of the surfactant Coronillo Ultra (CU) at 0.25% v/v and emulsion oil at 1% v/v to defoliant Paraquat at a 1 l/ha concentration, in conditions of high and low temperatures during both the day and at night on alfalfa was assessed.

Consider avemectin, for which, in assay [1], the “control percentage after 14 days” value is “low control percentage”. In assay [2] (high concentrations), the “effect of avemectin applied over the foliar surface” value is reported as “effective”. For the same compound, the “effect of avemectin when injected” value in assay [2] (low doses) is “same effect”.

Consider `C[n+]1ccc(-c2cc[n+](C)cc2)cc1` [Paraquat], for which the defoliation in assay [3] amounted to 17%.
